{"source": "paper PMC9578396", "about": "“Intrinsic Antibacterial Activity of Xeruborbactam In Vitro: Assessing Spectrum and Mode of Action” (Antimicrobial Agents and Chemotherapy, 2022)", "key": {"Pseudomonas aeruginosa": {"tested_on": "Pseudomonas aeruginosa", "assay": "Broth microdilution MIC (CLSI), Pseudomonas aeruginosa", "assay_type": "cell-based", "outline": "(§1)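 MICs by CLSI broth microdilution in in-house panels. Strains tested were engineered strains carrying porin and efflux mutation combinations, KPC-producing clinical isolates and derivatives cured of KPC plasmids, and KPC-producing clinical isolates enriched for porin mutations.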"}, "[1]": {"tested_on": "A. baumannii strain ATCC 17978", "assay": "Fluorescence microscopy, cellular morphology", "assay_type": "cell-based, Acinetobacter baumannii", "details": "xeruborbactam, meropenem 1× and 2× MIC; aztreonam 2× MIC; amdinocillin 2 μg/mL", "procedure": "(§2) Single colonies of K. pneumoniae strain KPM1026a, A. baumannii strain ATCC 17978, and P. aeruginosa strain PAM1154 were picked from LB agar plates, inoculated in cation-adjusted Mueller-Hinton broth (CA-MHB), and incubated overnight at 30°C with rolling. Overnight cultures were diluted into fresh CA-MHB and incubated at 30°C, with rolling, until they reached an OD600 of ≈0.12 to 0.15 (equivalent to ~2 × 10^8 CFU/mL). Samples were then treated with compounds and incubated at 30°C, with rolling. After 1 or 2 h of treatment, cells were collected and stained with a dye mix containing FM4-64 (1 μg/mL), DAPI (4′,6-diamidino-2-phenylindole) (2 μg/mL), and SYTOX green (0.5 μM) (Molecular Probes, Invitrogen, or Thermo Fisher Scientific). Cells were transferred onto an agarose pad containing 1.2% agarose and 20% LB medium for microscopy. Microscopy was performed as previously described ([34])."}, "Acinetobacter baumannii": {"tested_on": "Acinetobacter baumannii", "assay": "Broth microdilution MIC (CLSI), Acinetobacter baumannii", "assay_type": "cell-based", "details": "Acinetobacter baumannii", "outline": "as §1"}, "Escherichia coli": {"tested_on": "Escherichia coli", "assay": "Broth microdilution MIC (CLSI), Escherichia coli", "assay_type": "cell-based", "outline": "as §1"}, "Klebsiella pneumoniae": {"tested_on": "Klebsiella pneumoniae", "assay": "microbe, parasite or virus in culture", "assay_type": "cell-based", "outline": "as §1"}, "[2]": {"tested_on": "K. pneumoniae strain KPM1026a", "assay": "Fluorescence microscopy, cellular morphology", "assay_type": "cell-based, Klebsiella pneumoniae", "details": "treated at 1× and 2× MIC, 1 to 2 h, 30°C", "procedure": "as §2"}, "[3]": {"details": "ATCC17978, strain ATCC 17978 (Fig. 6), read-out: MIC"}}, "note": "Where two headings read alike, the source gives them in different places.", "data": [{"compound": "C[C@H]1[C@H](NC(=O)/C(=N\\OC(C)(C)C(=O)O)c2csc(N)n2)C(=O)N1S(=O)(=O)O", "note": "[Aztreonam]", "values": [{"measurement": "MIC", "setting": "Pseudomonas aeruginosa; PAM1154 (oprM::Hg), xeruborbactam 0 µg/ml", "result": 0.5, "unit": "µg/mL"}, {"measurement": "MIC", "setting": "Pseudomonas aeruginosa; Pseudomonas aeruginosa, strain 1089003, alone, read-out: MIC", "result": 0.5, "unit": "µg/mL"}, {"measurement": "MIC", "setting": "Pseudomonas aeruginosa; Pseudomonas aeruginosa, strain 1097436, alone, read-out: MIC", "result": 64, "unit": "µg/mL"}, {"measurement": "MIC", "setting": "Pseudomonas aeruginosa; Pseudomonas aeruginosa, strain 1098916, alone, read-out: MIC", "result": 0.5, "unit": "µg/mL"}, {"measurement": "MIC", "setting": "Pseudomonas aeruginosa; Pseudomonas aeruginosa, strain 1104168, alone, read-out: MIC", "result": 1, "unit": "µg/mL"}, {"measurement": "MIC", "setting": "Pseudomonas aeruginosa; Pseudomonas aeruginosa, strain 1104284, alone, read-out: MIC", "result": 0.5, "unit": "µg/mL"}, {"measurement": "MIC", "setting": "Pseudomonas aeruginosa; Pseudomonas aeruginosa, strain 1106973, alone, read-out: MIC", "result": 2, "unit": "µg/mL"}, {"measurement": "MIC", "setting": "Pseudomonas aeruginosa; Pseudomonas aeruginosa, strain 1109744, alone, read-out: MIC", "result": 0.5, "unit": "µg/mL"}, {"measurement": "MIC", "setting": "Pseudomonas aeruginosa; Pseudomonas aeruginosa, strain 1113238, alone, read-out: MIC", "result": 32, "unit": "µg/mL"}, {"measurement": "MIC", "setting": "Pseudomonas aeruginosa; Pseudomonas aeruginosa, strain 1113634, alone, read-out: MIC", "result": 4, "unit": "µg/mL"}, {"measurement": "MIC", "setting": "Pseudomonas aeruginosa; Pseudomonas aeruginosa, strain 1116835, alone, read-out: MIC", "result": 0.5, "unit": "µg/mL"}, {"measurement": "MIC", "setting": "Pseudomonas aeruginosa; Pseudomonas aeruginosa, strain 1116849, alone, read-out: MIC", "result": 2, "unit": "µg/mL"}, {"measurement": "MIC", "setting": "Pseudomonas aeruginosa; Pseudomonas aeruginosa, strain 1118234, alone, read-out: MIC", "result": 32, "unit": "µg/mL"}, {"measurement": "MIC", "setting": "Pseudomonas aeruginosa; Pseudomonas aeruginosa, strain 1119418, alone, read-out: MIC", "result": 32, "unit": "µg/mL"}, {"measurement": "MIC", "setting": "Pseudomonas aeruginosa; Pseudomonas aeruginosa, strain 1125954, alone, read-out: MIC", "result": 1, "unit": "µg/mL"}, {"measurement": "MIC", "setting": "Pseudomonas aeruginosa; Pseudomonas aeruginosa, strain 1125996, alone, read-out: MIC", "result": "> 64", "unit": "µg/mL"}, {"measurement": "MIC", "setting": "Pseudomonas aeruginosa; Pseudomonas aeruginosa, strain 1126521, alone, read-out: MIC", "result": 0.5, "unit": "µg/mL"}, {"measurement": "MIC", "setting": "Pseudomonas aeruginosa; Pseudomonas aeruginosa, strain 1126957, alone, read-out: MIC", "result": "> 64", "unit": "µg/mL"}, {"measurement": "MIC", "setting": "Pseudomonas aeruginosa; Pseudomonas aeruginosa, strain 1126982, alone, read-out: MIC", "result": 0.5, "unit": "µg/mL"}, {"measurement": "MIC", "setting": "Pseudomonas aeruginosa; Pseudomonas aeruginosa, strain 1128636, alone, read-out: MIC", "result": 2, "unit": "µg/mL"}, {"measurement": "MIC", "setting": "Pseudomonas aeruginosa; Pseudomonas aeruginosa, strain 1128674, alone, read-out: MIC", "result": 4, "unit": "µg/mL"}, {"measurement": "MIC", "setting": "Pseudomonas aeruginosa; Pseudomonas aeruginosa, strain 1130447, alone, read-out: MIC", "result": "> 64", "unit": "µg/mL"}, {"measurement": "MIC", "setting": "Pseudomonas aeruginosa; Pseudomonas aeruginosa, strain PAM1020, wild type, read-out: MIC", "result": 4, "unit": "µg/mL"}, {"measurement": "MIC", "setting": "Pseudomonas aeruginosa; Pseudomonas aeruginosa, strain PAM1032, nalB (MexAB-OprM overexpression)", "result": 16, "unit": "µg/mL"}, {"measurement": "MIC", "setting": "Pseudomonas aeruginosa; Pseudomonas aeruginosa, strain PAM1033, nfxB (MexCD-OprJ overexpression)", "result": 1, "unit": "µg/mL"}, {"measurement": "MIC", "setting": "Pseudomonas aeruginosa; Pseudomonas aeruginosa, strain PAM1034, nfxC (MexEF-OprN overexpression)", "result": 4, "unit": "µg/mL"}, {"measurement": "cellular morphology", "setting": "[1]", "result": "increase in cell length"}, {"measurement": "MIC", "setting": "Acinetobacter baumannii; AB1007 (no beta-lactamase), xeruborbactam 0 µg/ml, read-out: MIC", "result": 32, "unit": "µg/mL"}, {"measurement": "MIC", "setting": "Acinetobacter baumannii; AB1007, xeruborbactam 2 µg/ml, read-out: MIC", "result": 32, "unit": "µg/mL"}, {"measurement": "MIC", "setting": "Acinetobacter baumannii; AB1007, xeruborbactam 4 µg/ml, read-out: MIC", "result": 16, "unit": "µg/mL"}, {"measurement": "MIC", "setting": "Acinetobacter baumannii; AB1007, xeruborbactam 8 µg/ml, read-out: MIC", "result": 4, "unit": "µg/mL"}, {"measurement": "MIC", "setting": "Acinetobacter baumannii; [3]", "result": 32, "unit": "µg/mL"}, {"measurement": "MIC", "setting": "Acinetobacter baumannii; strain AB1007, wild type, read-out: MIC", "result": 32, "unit": "µg/mL"}, {"measurement": "MIC", "setting": "Acinetobacter baumannii; strain ACM1013, ΔadeIJK", "result": 1, "unit": "µg/mL"}, {"measurement": "MIC", "setting": "Acinetobacter baumannii; strain ACM1014, ΔadeABC", "result": 16, "unit": "µg/mL"}, {"measurement": "MIC", "setting": "Acinetobacter baumannii; strain ACM1015, ΔadeIJK ΔadeABC", "result": 1, "unit": "µg/mL"}, {"measurement": "MIC", "setting": "Acinetobacter baumannii; strain ACM1027, adeN (AdeIJK overexpression)", "result": 64, "unit": "µg/mL"}, {"measurement": "MIC", "setting": "Acinetobacter baumannii; strain ACM1030, adeS (AdeABC overexpression)", "result": 16, "unit": "µg/mL"}, {"measurement": "MIC", "setting": "Escherichia coli; EC1078, PBP2 same as MG1655, PBP3 I332V", "result": 64}, {"measurement": "MIC", "setting": "Escherichia coli; EC1081, PBP2 same as MG1655, PBP3 Q227H", "result": 64}, {"measurement": "MIC", "setting": "Escherichia coli; EC1085, PBP2 T331P, PBP3 A233T I332V", "result": 2}, {"measurement": "MIC", "setting": "Escherichia coli; EC1088, PBP2 A308G, PBP3 same as MG1655", "result": "> 64"}, {"measurement": "MIC", "setting": "Escherichia coli; EC1097, PBP2 M574I, PBP3 Q227H", "result": "> 64"}, {"measurement": "MIC", "setting": "Escherichia coli; EC1098, PBP2 V217M, PBP3 YRIN ins, I532L", "result": 64}, {"measurement": "MIC", "setting": "Escherichia coli; EC1103, PBP2 same as MG1655, PBP3 YRIN ins, Q227H, E349K, I532L", "result": 32}, {"measurement": "MIC", "setting": "Escherichia coli; EC1105, PBP2 A543T, PBP3 YRIN ins, Q227H, E349K, I532L", "result": "> 64"}, {"measurement": "MIC", "setting": "Escherichia coli; EC1119, PBP2 same as MG1655, PBP3 YRIN ins, Q227H, E349K, I532L", "result": "> 64"}, {"measurement": "MIC", "setting": "Escherichia coli; EC1121, PBP2 V217M, PBP3 YRIN ins, E349K, I532L", "result": "> 64"}, {"measurement": "MIC", "setting": "Escherichia coli; Escherichia coli, strain ECM5497, wild type, read-out: MIC", "result": 0.03, "unit": "µg/mL"}, {"measurement": "MIC", "setting": "Escherichia coli; Escherichia coli, strain ECM6001, ΔacrB", "result": 0.03, "unit": "µg/mL"}]}, {"compound": "CC1(C)S[C@@H]2[C@H](/N=C/N3CCCCCC3)C(=O)N2[C@H]1C(=O)O", "note": "[Mecillinam]", "values": [{"measurement": "MIC", "setting": "Pseudomonas aeruginosa; Pseudomonas aeruginosa, strain PAM1154 (Fig. 6), read-out: MIC", "result": 128, "unit": "µg/mL"}, {"measurement": "cellular morphology", "setting": "[1]", "result": "bacterial cell rounding but not swelling"}, {"measurement": "MIC", "setting": "Klebsiella pneumoniae; KPM1026a (no beta-lactamase), xeruborbactam 0 µg/ml", "result": 0.25, "unit": "µg/mL"}, {"measurement": "MIC", "setting": "Klebsiella pneumoniae; KPM1026a, xeruborbactam 2 µg/ml", "result": 0.25, "unit": "µg/mL"}, {"measurement": "MIC", "setting": "Klebsiella pneumoniae; KPM1026a, xeruborbactam 4 µg/ml", "result": 0.125, "unit": "µg/mL"}, {"measurement": "MIC", "setting": "Klebsiella pneumoniae; KPM1026a, xeruborbactam 8 µg/ml", "result": 0.06, "unit": "µg/mL"}, {"measurement": "MIC", "setting": "Klebsiella pneumoniae; Klebsiella pneumoniae, KPM1026a, alone, read-out: MIC", "result": 0.25, "unit": "µg/mL"}, {"measurement": "MIC", "setting": "Klebsiella pneumoniae; Klebsiella pneumoniae, KPM1026a, parent, read-out: MIC", "result": 0.25, "unit": "µg/mL"}, {"measurement": "MIC", "setting": "Klebsiella pneumoniae; Klebsiella pneumoniae, KPM3532 (TolQ::M189K), alone", "result": "> 64", "unit": "µg/mL"}, {"measurement": "MIC", "setting": "Klebsiella pneumoniae; Klebsiella pneumoniae, KPM3532, TolQ::M189K", "result": "> 64", "unit": "µg/mL"}, {"measurement": "MIC", "setting": "Klebsiella pneumoniae; Klebsiella pneumoniae, KPM3534 (TolQ::S31F), alone", "result": "> 64", "unit": "µg/mL"}, {"measurement": "MIC", "setting": "Klebsiella pneumoniae; Klebsiella pneumoniae, KPM3534, TolQ::S31F", "result": "> 64", "unit": "µg/mL"}, {"measurement": "MIC", "setting": "Klebsiella pneumoniae; Klebsiella pneumoniae, KPM4235, TolQ::IP(183–1844)PR", "result": "> 64", "unit": "µg/mL"}, {"measurement": "MIC", "setting": "Klebsiella pneumoniae; Klebsiella pneumoniae, KPM4236, TolQ::TAA at aa 103", "result": "> 64", "unit": "µg/mL"}, {"measurement": "MIC", "setting": "Klebsiella pneumoniae; Klebsiella pneumoniae, KPM4238, TolQ::S25F", "result": "> 64", "unit": "µg/mL"}, {"measurement": "MIC", "setting": "Klebsiella pneumoniae; Klebsiella pneumoniae, KPM4239, TolQ::S28F", "result": "> 64", "unit": "µg/mL"}, {"measurement": "MIC", "setting": "Klebsiella pneumoniae; Klebsiella pneumoniae, KPM4240, TolQ::S25Y", "result": "> 64", "unit": "µg/mL"}, {"measurement": "MIC", "setting": "Klebsiella pneumoniae; Klebsiella pneumoniae, strain KPM1026a measured at 30°C (Fig. 6), read-out: MIC", "result": 128, "unit": "µg/mL"}, {"measurement": "cellular morphology", "setting": "[2]", "result": "cell rounding"}, {"measurement": "MIC", "setting": "Acinetobacter baumannii; [3]", "result": 128, "unit": "µg/mL"}, {"measurement": "MIC", "setting": "Acinetobacter baumannii; ATCC17978, strain ATCC 17978, read-out: MIC", "result": "> 256", "unit": "µg/mL"}]}]}
